Test results reported in PMC2217384 (The Journal of General Physiology, 2003).

Target: T1, P2X1 receptor (Rattus norvegicus, UniProt P47824)
T1 sequence (P47824 1-399): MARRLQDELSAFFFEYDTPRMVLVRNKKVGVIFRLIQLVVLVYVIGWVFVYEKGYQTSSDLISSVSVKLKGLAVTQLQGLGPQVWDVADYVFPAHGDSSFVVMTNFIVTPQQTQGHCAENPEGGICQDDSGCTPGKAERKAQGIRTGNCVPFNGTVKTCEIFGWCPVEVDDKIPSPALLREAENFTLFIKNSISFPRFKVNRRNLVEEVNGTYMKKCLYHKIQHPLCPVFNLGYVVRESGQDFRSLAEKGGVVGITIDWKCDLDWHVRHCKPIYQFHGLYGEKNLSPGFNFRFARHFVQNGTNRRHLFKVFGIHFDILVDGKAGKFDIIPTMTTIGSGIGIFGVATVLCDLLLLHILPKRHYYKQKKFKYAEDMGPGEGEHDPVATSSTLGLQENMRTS
Assay: two-electrode voltage clamp in Xenopus oocytes
Type: cell-based

EC50: 700 ± 60 nM
SMILES: Nc1ncnc2c1ncn2[C@@H]1O[C@H](COP(=O)(O)OP(=O)(O)OP(=O)(O)O)[C@@H](O)[C@H]1O [ATP]
